C=CC(=O)N1CCC[C@@H](n2nc(-c3ccc(Oc4ccccc4)cc3)c3c(N)ncnc32)C1
solubility (mole fraction)
Details | 298.15 K | 303.15 K | 308.15 K | 313.15 K | 323.15 K
in transcutol | 0.0267 | 0.0288 | 0.0318 | 0.0341 | 0.0392
in water | 1.43e-07 | 2.21e-07 | 3.11e-07 | 4.13e-07 | 7.69e-07

Source: BigSolDB 2.1
